Results as given in US11384066B1, “Heterocyclic compounds useful as aurora a selective inhibitors” (Jacobio Pharmaceuticals Co., Ltd., priority 2020, dated 2022).

What was measured:
Aurora A = Aurora A (Homo sapiens (Human), UniProt O14965); assay: Aurora A kinase assay (mobility shift assay); type: biochemical
Method: (§1) Example A: Evaluation of Aurora a and Aurora B Inhibitory Effect—Kinase Assay
(§2) The inhibitory activities of a test compound against Aurora A and Aurora B were measured according to the following method.
(§3) The IC50 value of Aurora A and Aurora B kinase was performed by Sundia MediTech Co. Ltd. using Mobility shift assay.
(§4) • (1) Prepare a 1× kinase buffer [50 mM 4-(2-hydroxyethyl)-1-piperazineethanesulfonic acid (HEPES), PH 7.5, 0.01% Brij-35, 10 mM MgCl2, 2 mM dithiothreitol (DTT)]. • (2) Prepare compound:
(§5) The testing compound was dissolved with DMSO. The testing compound was diluted up to 100× final concentration in a 384-well plate. Transfer 250 nL of the compound dilution to a 384-well assay plate using Echo 550. 100% DMSO of 250 nL was added to the negative control well and the positive control well. • (3) Prepare a 2.5× enzyme solution using the above 1× kinase buffer. • (4) Add 10 μL of the 2.5× enzyme solution to the compound well and the positive control well of the 384-well assay plate. Add 10 μL of the 1× kinase buffer to the negative control well. • (5) The 384-well plate was centrifuged at 1000 rpm for 30 seconds and incubated at room temperature for 10 min. • (6) A mixture of ATP and Kinase substrate 21 with a final concentration of 25/15× was prepared by the 1× kinase buffer. • (7) Add 15 μL of the mixture of 25/15×ATP and kinase substrate solution 21 to start reaction. • (8) The 384-well plate was centrifuged at 1000 rpm for 30 seconds and incubated at room temperature. • (9) 30 μL of the stop and detection buffer was added to stop the kinase reaction and centrifuged at 1000 rpm for 30 seconds. • (10) Collect data on Caliper EZ ReaderII. Data Analysis:
(§6) Conversion %_sample is conversion rate data of samples. Conversion %_min is mean value of negative control (conversion rate data without enzyme activation). Conversion %_max is mean positive control (conversion rate data without compound).
(§7) The log of concentration is on the X axis, and the percentage inhibition is on the Y axis. Fit the Quantitative effect curves with log (inhibitor) vs. response—Variable slope in GraphPad Prism5 obtain IC50 values. Equation used is Y=Bottom+(Top−Bottom)/(1+10^((Log IC50−X)*HillSlope)).

Aurora B = Aurora B (Homo sapiens (Human), UniProt Q96GD4); assay: Aurora B kinase assay (mobility shift assay); type: biochemical; details: ratio of Aurora B IC50 to Aurora A IC50
Sequence of Aurora B (Q96GD4 whole entry): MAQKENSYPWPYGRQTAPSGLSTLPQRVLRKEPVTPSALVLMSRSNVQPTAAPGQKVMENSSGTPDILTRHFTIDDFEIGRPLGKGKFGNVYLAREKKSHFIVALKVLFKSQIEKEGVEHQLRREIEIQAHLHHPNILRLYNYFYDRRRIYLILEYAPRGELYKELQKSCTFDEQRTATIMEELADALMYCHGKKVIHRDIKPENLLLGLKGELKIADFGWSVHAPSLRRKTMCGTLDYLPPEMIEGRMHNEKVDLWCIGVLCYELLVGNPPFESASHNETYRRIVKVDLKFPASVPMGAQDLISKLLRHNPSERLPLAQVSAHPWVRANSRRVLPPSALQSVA
Method: as §1, §2, §3, §4, §5, §6, §7

Sequence of Aurora A (O14965 whole entry): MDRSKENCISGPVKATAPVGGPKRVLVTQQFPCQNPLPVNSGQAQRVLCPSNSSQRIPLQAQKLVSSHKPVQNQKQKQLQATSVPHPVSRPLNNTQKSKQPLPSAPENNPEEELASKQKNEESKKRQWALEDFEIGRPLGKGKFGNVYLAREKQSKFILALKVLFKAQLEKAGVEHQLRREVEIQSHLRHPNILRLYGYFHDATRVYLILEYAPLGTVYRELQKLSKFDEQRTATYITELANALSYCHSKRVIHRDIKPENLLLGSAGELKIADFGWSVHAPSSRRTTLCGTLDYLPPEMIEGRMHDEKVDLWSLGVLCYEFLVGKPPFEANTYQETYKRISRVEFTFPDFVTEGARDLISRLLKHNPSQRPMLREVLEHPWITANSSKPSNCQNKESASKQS

| Compound | IC50 (Aurora A) | IC50 Ratio Aur B/Aur A (Aurora B) |
| --- | --- | --- |
| Cc1cc(Nc2cncc(C[C@@]3(C(=O)O)CCN(Cc4cccc(Cl)c4F)[C@H](C)C3)n2)n[nH]1 (stereo in doubt) [Example 45, (2R,4R)-1-(3-chloro-2-fluorobenzyl)-2-methyl-4-((6-((5-methyl-1H-pyrazol-3-yl)amino)pyrazin-2-yl)methyl)piperidine-4-carboxylic acid] | 0.88 nM | 523 |
| Cc1cc(Nc2ccc(F)c(CC3(C(=O)O)CCN(Cc4cccc(Cl)c4F)CC3)n2)n[nH]1 [Example 1, 1-(3-chloro-2-fluorobenzyl)-4-((3-fluoro-6-((5-methyl-1H-pyrazol-3-yl)amino)pyridin-2-yl)methyl)piperidine-4-carboxylic acid] | 1.3 nM | 2288 |
| CCC1CC(Cc2nc(Nc3cc(C)[nH]n3)ccc2F)(C(=O)O)CCN1Cc1cccc(Cl)c1F (stereo not drawn) [Example 2, 1-(3-chloro-2-fluorobenzyl)-2-ethyl-4-((3-fluoro-6-((5-methyl-1H-pyrazol-3-yl)amino)pyridin-2-yl)methyl)piperidine-4-carboxylic acid] | 2.9 nM | 1236 |
| Cc1cc(Nc2ccc(C)c(C[C@@]3(C(=O)O)CCN(Cc4cccc(Cl)c4F)[C@H](C)C3)n2)n[nH]1 [Example 10, (2R,4R)-1-(3-chloro-2-fluorobenzyl)-2-methyl-4-((3-methyl-6-((5-methyl-1H-pyrazol-3-yl)amino)pyridin-2-yl)methyl) piperidine-4-carboxylic acid] | 1 nM | 979 |
| Cc1cc(Nc2ccc(Cl)c(C[C@@]3(C(=O)O)CCN(Cc4cccc(Cl)c4F)[C@H](C)C3)n2)n[nH]1 [Example 11, (2R,4R)-1-(3-chloro-2-fluorobenzyl)-4-((3-chloro-6-((5-methyl-1H-pyrazol-3-yl)amino)pyridin-2-yl)methyl)-2-methylpiperidine-4-carboxylic acid] | 0.64 nM | 2264 |
| Cc1cc(Nc2ccc(F)c(C[C@@]3(C(=O)O)CCN(Cc4c(F)cccc4F)[C@H](C)C3)n2)n[nH]1 [Example 12, (2R,4R)-1-(2,6-difluorobenzyl)-4-((3-fluoro-6-((5-methyl-1H-pyrazol-3-yl)amino)pyridin-2-yl)methyl)-2-methylpiperidine-4-carboxylic acid] | 2.4 nM | 2560 |
| Cc1cc(Nc2ccc(F)c(C[C@@]3(C(=O)O)CCN(Cc4cccc(F)c4F)[C@H](C)C3)n2)n[nH]1 [Example 15, (2R,4R)-1-(2,3-difluorobenzyl)-4-((3-fluoro-6-((5-methyl-1H-pyrazol-3-yl)amino)pyridin-2-yl)methyl)-2-methylpiperidine-4-carboxylic acid] | 0.55 nM | 1755 |
| Cc1cc(Nc2ccc(F)c(C[C@@]3(C(=O)O)CCN(Cc4cccc(C)c4F)[C@H](C)C3)n2)n[nH]1 [Example 16, (2R,4R)-1-(2-fluoro-3-methylbenzyl)-4-((3-fluoro-6-((5-methyl-1H-pyrazol-3-yl)amino)pyridin-2-yl)methyl)-2-methylpiperidine-4-carboxylic acid] | 1.7 nM | 1812 |
| Cc1cc(Nc2ccc(F)c(C[C@@]3(C(=O)O)CCN(Cc4c(Cl)cccc4Cl)[C@H](C)C3)n2)n[nH]1 [Example 17, (2R,4R)-1-(2,6-dichlorobenzyl)-4-((3-fluoro-6-((5-methyl-1H-pyrazol-3-yl)amino)pyridin-2-yl)methyl)-2-methylpiperidine-4-carboxylic acid] | 3.2 nM | 2974 |
| Cc1cc(Nc2ccc(F)c(C[C@@]3(C(=O)O)CCN(Cc4cccc(C(F)(F)F)c4)[C@H](C)C3)n2)n[nH]1 [Example 21, (2R,4R)-4-((3-fluoro-6-((5-methyl-1H-pyrazol-3-yl)amino)pyridin-2-yl)methyl)-2-methyl-1-(3-(trifluoromethyl)benzyl) piperidine-4-carboxylic acid] | 3.1 nM | 1789 |
| Cc1cc(Nc2ccc(F)c(C[C@@]3(C(=O)O)CCN(Cc4cc(Cl)c(F)c(Cl)c4)[C@H](C)C3)n2)n[nH]1 [Example 23, (2R,4R)-1-(3,5-dichloro-4-fluorobenzyl)-4-((3-fluoro-6-((5-methyl-1H-pyrazol-3-yl)amino)pyridin-2-yl)methyl)-2-methylpiperidine-4-carboxylic acid] | 0.91 nM | 613 |
| Cc1cc(Nc2ncc(F)c(C[C@@]3(C(=O)O)CCN(Cc4cccc(Cl)c4F)[C@H](C)C3)n2)n[nH]1 [Example 26, (2R,4R)-1-(3-chloro-2-fluorobenzyl)-4-((5-fluoro-2-((5-methyl-1H-pyrazol-3-yl)amino)pyrimidin-4-yl)methyl)-2-methylpiperidine-4-carboxylic acid] | 2.9 nM | 1499 |
| Cc1cc(Nc2ccc(F)c(C[C@@]3(C(=O)O)CCN(Cc4ccc(F)c(Cl)c4F)[C@H](C)C3)n2)n[nH]1 [Example 27, (2R,4R)-1-(3-chloro-2,4-difluorobenzyl)-4-((3-fluoro-6-((5-methyl-1H-pyrazol-3-yl)amino)pyridin-2-yl)methyl)-2-methylpiperidine-4-carboxylic acid] | 0.81 nM | 622 |
| Cc1cc(Nc2cccc(C[C@@]3(C(=O)O)CCN(Cc4cccc(Cl)c4F)[C@H](C)C3)n2)n[nH]1 [Example 29, (2R,4R)-1-(3-chloro-2-fluorobenzyl)-2-methyl-4-((6-((5-methyl-1H-pyrazol-3-yl)amino)pyridin-2-yl)methyl)piperidine-4-carboxylic acid] | 1.4 nM | 586 |
| Cc1cc(Nc2nc(C[C@@]3(C(=O)O)CCN(Cc4cccc(Cl)c4F)[C@H](C)C3)cnc2C)n[nH]1 [Example 33, (2R,4R)-1-(3-chloro-2-fluorobenzyl)-2-methyl-4-((5-methyl-6-((5-methyl-1H-pyrazol-3-yl)amino)pyrazin-2-yl)methyl) piperidine-4-carboxylic acid] | 1.5 nM | 3757 |
| Cc1cc(Nc2nc(C[C@@]3(C(=O)O)CCN(Cc4cccc(Cl)c4F)[C@H](C)C3)c(F)cc2C)[nH]n1 [Example 35, (2R,4R)-1-(3-chloro-2-fluorobenzyl)-4-((3-fluoro-5-methyl-6-((3-methyl-1H-pyrazol-5-yl)amino)pyridin-2-yl)methyl)-2-methylpiperidine-4-carboxylic acid] | 1.9 nM | 2403 |
| Cc1cc(Nc2ccc(F)c(C[C@@]3(C(=O)O)CCN(C(=O)Cc4cccc(Cl)c4F)[C@H](C)C3)n2)n[nH]1 [Example 38, (2R,4R)-1-(2-(3-chloro-2-fluorophenyl)acetyl)-4-((3-fluoro-6-((5-methyl-1H-pyrazol-3-yl)amino)pyri-din-2-yl)methyl)-2-methyl-piperidine-4-carboxylic acid] | 0.85 nM | 986 |
| Cc1cc(Nc2ccc(F)c(C[C@@]3(C(=O)O)CCN(S(=O)(=O)c4ccccc4C(F)(F)F)[C@H](C)C3)n2)n[nH]1 [Example 39, (2R,4R)-4-((3-fluoro-6-((5-methyl-1H-pyrazol-3-yl)amino)pyridin-2-yl)methyl)-2-methyl-1-((2-(trifluoromethyl)phenyl)sulfonyl)piperidine-4-carboxylic acid] | 0.57 nM | 3019 |
